{
  "source": "patent EP0929311B1",
  "about": "“INHIBITION OF APOPTOSIS USING INTERLEUKIN-1 beta-CONVERTING ENZYME (ICE)/CED-3 FAMILY INHIBITORS” (Idun Pharmaceuticals, Inc., priority 1996, dated 1998)",
  "system": "granulocytes",
  "assay": "Granulocyte/neutrophil survival in culture, hypodiploid nuclei by propidium iodide flow cytometry",
  "type": "cell-based",
  "conditions": "at 48 hours; granulocytes cultured at 37°C, hypodiploid DNA",
  "procedure": "Whole blood anticoagulated with Acid Citrate Dextrose (ACD) with a ratio of 1:5 ACD to blood was collected (~100 ml).\nUsing polypropylene plastic ware, neutrophils are isolated as follows: • 30 ml of the whole blood is added to 50 ml polypropylene centrifuge tubes containing 15 ml of 6% Dextran (in Saline). The blood is allowed to sediment for approximately 1 hour at room temperature.\nThe turbid straw colored layer harvested from the top of the cylinders into 50 ml conical polypropylene tubes. The blood cells were pelleted by centrifugation at 240 xg (Sorvall centrifuge at 1200 rpm) for 12 min. at 4°C with the brake on low. […]\nThe supernatant was aspirated and the neutrophil pellet resuspended in 4.0 ml cold PBS (w/o Ca, Mg) on ice. 10 µl of the neutrophil cell suspension was diluted with 990 µl of Trypan blue (1:100) and cells counted using a hemacytometer. The cell number and viability were determined. […]\nNeutrophils were resuspended in hypotonic fluorochrome solution at a density of 5×10^6 cells/ml. Propidium iodide fluorescence of individual nuclei was evaluated in FL2 and measured on a logarithmic scale while gating on physical parameters in forward and side scatter to exlude cell debris.\nAt least 10,000 events per sample were collected and the results were evaluated relative to a non-apoptotic neutrophil population. […]",
  "note": "Residues, ends and D or L forms follow the SMILES beside them. *: point of attachment. Cbz = O=C(OCc1ccccc1)*; CH2F = FC*",
  "data": [
    {"smiles": "COC(=O)C[C@H](NC(=O)[C@H](C)NC(=O)[C@@H](NC(=O)OCc1ccccc1)C(C)C)C(=O)CF", "note": "[zVADfmk] (Cbz-Val-Ala-Asp(OMe)-CH2F)", "values": [
      {"measurement": "effect on improving granulocyte survival", "value": "weak effect"}
    ]}
  ]
}
